Measured values as given in PMC6902473 (Clinical Epigenetics, 2019).
Several values for one entry are separate records, joined by “and”; a condition that tells them apart may be missing. Identical values can stand only once.

Legend:
clinical = test: clinical
Excerpt: The assays were validated according to the common FDA and EMA guidelines on bioanalytical method validation.

[1] = system: relapsed or therapy-refractory solid tumors (including brain tumors), lymphoma, or leukemia; test: Phase II tumor response and survival at individual MTD (RECIST version 1.1)
Method: (§1) During phase II, disease assessments were performed every 3 months, starting 3 months after reaching individual MTD. If treatment was discontinued for any reason during phase II, treatment was prolonged thereafter to provide a minimal treatment window of 3 months before measuring response. Patients without progressive disease continued the therapy at their individual MTD until disease progression (but no longer than 9 months). In case of clinical benefit, treatment could be continued on an individual basis at the discretion of the investigator. Toxicities were graded according CTCAE V4.0.
(§2) The primary end point was to determine a safe dose recommendation (SDR), defined as the highest dose with a DLT in no more than 1/50 patients.
Pretreatment evaluations included medical history, physical examination, ECG, ß-hCG in urine pregnancy test (if applicable), and complete blood count including differential, serum electrolytes liver, and renal function tests. Tumor markers were determined if appropriate. During phase I and the first 3 months of phase II (until the first response evaluation), history, physical examination, and laboratory studies were obtained weekly. If patients continued treatment beyond the first response evaluation in phase II (i.e., not showing PD), evaluations were performed every 2 weeks. After end of treatment, patients were followed-up for 3 months according the same scheme. In addition, an ECG was performed during phase I on day 8, 15, and at the time of reaching the individual MTD. Disease evaluations were performed at baseline, after 3 months of treatment at individual MTD, and every 3 months thereafter, using MRI (solid tumors, brain tumors, lymphomas), MIBG scan (neuroblastoma), or bone marrow evaluation (leukemia). Responses were reported using RECIST version 1.1 (solid tumors, brain tumors, lymphomas) [42–44] or the International Neuroblastoma Response Criteria (INRC) (neuroblastoma) [45], by central review. Bone marrow aspirates were evaluated in a central lab together with peripheral blood differential blood counts.
Standard methods for survival analysis (e.g., Kaplan-Meier estimates of the survival curves, Greenwood’s formula for estimating the standard error of event rates) were used for the analysis of time-to-event endpoints. […] Efficacy analysis included all patients who had completed the escalation/de-escalation scheme and started with the individual therapy at the MTD.
The AUCs were calculated by mixed log-linear model. Following exploratory aims to predict progression free survival (PFS) and overall survival (OS), an optimal cutpoint in the continuous PK parameter distributions of Cmax and AUC/D was determined by the minimum p value approach based on the log-rank test [51]. Graphical and statistical analysis was performed with Graphpad Prism 7.0 (Graphpad Software Inc., La Jolla, CA, USA), Kinetica 5.0 (Thermo Fisher Scientific, Waltham, MA, USA), and the R software/environment version 3.5.1 (R Foundation for Statistical Computing, Vienna, Austria).

[2] = Phase I/II intra-patient dose escalation trial: safety (DLT, individual MTD, SDR, adverse events CTCAE v4.0)
Method: The study design was a single-arm, multi-center phase I/II clinical trial with two phases: Phase I was an intra-patient dose (de)escalation period until an individual maximum tolerable dose (MTD) was reached. […] A DLT was defined as grade 3 or 4 toxicity according to a selection of Common Toxicity Criteria for Adverse Events (CTCAE) (V4.0) and judged by the investigator as definitely, probably, or possibly related to the study drug. The starting dose was 180 mg/m^2/day and the minimum dose was 30 mg/m^2/day. A dosing nomogram was used to minimize interpatient dosing variability.
De-escalation was done in steps of 50 mg/m^2/day until a minimal dose of 30 mg/m^2/day was reached. […] Upon reaching her or his individual MTD, a patient seamlessly entered phase II of the protocol.
as §1, §2
The DLT associated with the starting dose was to be continuously monitored using a Bayesian criterion with a non-informative prior and a binomial-beta model for the DLT rate r. […] This decision process was repeated, i.e., it was applied to the lowered starting dose in an analogous way.
All adverse events were summarized, using MedDRA preferred terms.

[3] = single patient: High grade glioma, highest methylation score for glioblastoma IDH wt, (NC) not censored
[4] = single patient: High grade glioma, methylation profile pilocytic astrocytoma, BRAF (p.V600E), (C) censored
[5] = single patient: Medulloblastoma, (C) censored
[6] = single patient: SETTLE tumor, (C) censored
[7] = maximum Grade 3 CTCAE v4.0, n = 50

O=C(CCCCCCC(=O)Nc1ccccc1)NO [vorinostat]
AUC0_0-inf/D (clinical; human, in vivo, po): 5.49 ± 2.75 (ng/mL*h)/(mg/d) | Clearance (clinical; human, in vivo, po): 235 ± 149 L/h | Clearance, 25% Percentile (clinical; human, in vivo, po): 181 L/h | Cmax/D (clinical; human, in vivo, po): 1.70 ± 1.18 (ng/mL)/(mg/d) | Vz (clinical; human, in vivo, po): 644 ± 460 L | Vz, 25% Percentile (clinical; human, in vivo, po): 397 L | t½ (clinical; human, in vivo, po): 1.98 ± 0.96 h | Clearance, Mean (clinical; human, in vivo, po, 530 mg/m2): 408 L/h | Clearance, Median (clinical; human, in vivo, po, 530 mg/m2): 304 L/h | Vz, Maximum (clinical; human, in vivo, po, 530 mg/m2): 1330 L | Vz, Mean (clinical; human, in vivo, po, 530 mg/m2): 1008 L | Vz, Median (clinical; human, in vivo, po, 530 mg/m2): 1186 L | AUC(0-t) (clinical; human, in vivo, po, 530 mg/m2, AUClast, Median): 5.82 µM·h and 1540 ng·h/mL | Tmax (clinical; human, in vivo, po, 530 mg/m2, Tmax, Mean): 2.17 h | half-life (clinical; human, in vivo, po, 530 mg/m2, t1/2, Mean): 1.84 h | half-life (clinical; human, in vivo, po, 530 mg/m2, t1/2, Median): 1.46 h | AUClast, Median (clinical; human, in vivo, po, 580 mg/m2): 10.3 µM·h | Clearance, Maximum (clinical; human, in vivo, po, 580 mg/m2): 453 L/h | Clearance, Mean (clinical; human, in vivo, po, 580 mg/m2): 295 L/h | Clearance, Median (clinical; human, in vivo, po, 580 mg/m2): 211 L/h | Clearance, Minimum (clinical; human, in vivo, po, 580 mg/m2): 155 L/h | Cmax, Maximum (clinical; human, in vivo, po, 580 mg/m2): 1.689 µg/mL | Cmax, Minimum (clinical; human, in vivo, po, 580 mg/m2): 0.315 µg/mL | Tmax, Maximum (clinical; human, in vivo, po, 580 mg/m2): 2.00 h | Tmax, Mean (clinical; human, in vivo, po, 580 mg/m2): 1.40 h | Vz, Maximum (clinical; human, in vivo, po, 580 mg/m2): 2135 L | Vz, Mean (clinical; human, in vivo, po, 580 mg/m2): 793 L | Vz, Median (clinical; human, in vivo, po, 580 mg/m2): 480 L | t1/2, Maximum (clinical; human, in vivo, po, 580 mg/m2): 3.30 h | t1/2, Minimum (clinical; human, in vivo, po, 580 mg/m2): 0.850 h | AUC(0-t) (clinical; human, in vivo, po, 580 mg/m2, AUClast, Mean): 11.3 µM·h | Cmax (clinical; human, in vivo, po, 580 mg/m2, Cmax, Mean): 4.33 µM and 1140 ng/mL | Cmax (clinical; human, in vivo, po, 580 mg/m2, Cmax, Median): 5.42 µM and 1430 ng/mL | half-life (clinical; human, in vivo, po, 580 mg/m2, t1/2, Mean): 1.78 h | half-life (clinical; human, in vivo, po, 580 mg/m2, t1/2, Median): 1.62 h | Tmax (clinical; human, in vivo, po, Tmax): 2.07 ± 1.37 h | Cmax (clinical; read-out: Cmax, Maximum, 530 mg/m2/d oral, plasma, maximum of 3 values): 2.38 µM | Cmax (clinical; read-out: Cmax, Minimum, 530 mg/m2/d oral, plasma, minimum of 3 values): 1.71 µM | Best ORR (CR + PR + SD) ([1]; Efficacy population (n = 27)): 6 (22.2, 8.6–42.3) No. (%, 95% CI) | Best RR (CR + PR) ([1]; Efficacy population (n = 27)): 4 (14.8, 4.2–33.7) No. (%, 95% CI) | Median OS (95% CI) ([1]; Efficacy population (n = 27)): 22.4 months and 22.4 (6.3 - --) months | Median PFS (95% CI) ([1]; Efficacy population (n = 27)): 5.3 (4.6–5.9) months | Median response duration ([1]; Efficacy population (n = 27)): 19.1 months | best overall response rate (combining PR and SD, no CR observed) ([1]; Efficacy population (n = 27)): 22% | Best ORR (CR + PR + SD) ([1]; Safety population (n = 50)): 6 (12.0, 4.5–24.3) No. (%, 95% CI) | Best RR (CR + PR) ([1]; Safety population (n = 50)): 4 (8.0, 2.2–19.2) No. (%, 95% CI) | Median OS (95% CI) ([1]; Safety population (n = 50)): 6.1 (4.0–10.4) months | Median PFS (95% CI) ([1]; Safety population (n = 50)): 4.6 (3.7–5.3) months | Median response duration ([1]; Safety population (n = 50)): 19.1 months | patients with partial response (PR) ([1]; first response evaluation, after 3-month treatment at individual MTD, efficacy population): 3/27 | OS [1, 3]: 750 (NC) Days | PFS [1, 3]: 441 (NC) Days | OS [1, 4]: 1352 (C) Days | PFS [1, 4]: 385 (C) Days | PFS ([1]; single patient: High grade glioma, no molecular data, last dose level 280 mg/m^2/d, (C) censored): 499 (C) Days | OS ([1]; single patient: High grade glioma, no molecular data, last dose level 280 mg/m^2/d, (NC) not censored): 682 (NC) Days | OS [1, 5]: 871 (C) Days | PFS [1, 5]: 422 (C) Days | OS [1, 6]: 1190 (C) Days | PFS [1, 6]: 456 (C) Days | median individual MTD ([2]; Safety population (n = 50)): 280 mg/m^2/day | patients who reached the maximum individual MTD of 580 mg/m^2/day ([2]; Safety population (n = 50)): 4/50 | treatment-related deaths ([2]; Safety population (n = 50)): No treatment-related deaths | safe dose recommendation (SDR) ([2]; highest dose with a DLT in no more than 1/50 patients, starting dose for individual dose escalation): 130 mg/m^2/day | Patients with treatment related AE: Anemia [2, 7]: 2 (4.0) Patients (%) | Patients with treatment related AE: Decreased appetite [2, 7]: 2 (4.0) Patients (%) | Patients with treatment related AE: Diarrhea [2, 7]: 1 (2.0) Patients (%) | Patients with treatment related AE: Fatigue [2, 7]: 7 (14.0) Patients (%) | Patients with treatment related AE: Headache [2, 7]: 1 (2.0) Patients (%) | Patients with treatment related AE: Hypermagnesemia [2, 7]: 3 (6.0) Patients (%) | Patients with treatment related AE: Nausea [2, 7]: 4 (8.0) Patients (%) | Patients with treatment related AE: Platelet count decreased [2, 7]: 15 Patients (%) and 15 (30.0) Patients (%) | Patients with treatment related AE: Vomiting [2, 7]: 2 (4.0) Patients (%) | Patients with treatment related AE: Weight decreased [2, 7]: 3 (6.0) Patients (%) | Patients with treatment related AE: White blood cell decreased [2, 7]: 8 (16.0) Patients (%) | Patients with treatment related AE: Platelet count decreased ([2]; maximum Grade 4 CTCAE v4.0, n = 50): 16 Patients (%) and 16 (32.0) Patients (%) | maximum individual MTD ([2]; maximum dose of the escalation scheme): 580 mg/m^2/day | MTD ([2]; single patient: High grade glioma, highest methylation score for glioblastoma IDH wt): 530 mg/m^2/d | MTD ([2]; single patient: High grade glioma, methylation profile pilocytic astrocytoma, BRAF (p.V600E)): 280 mg/m^2/d | MTD ([2]; single patient: High grade glioma, no molecular data, last dose level 280 mg/m^2/d): 530 mg/m^2/d | MTD ([2]; single patient: Medulloblastoma): 580 mg/m^2/d | MTD ([2]; single patient: SETTLE tumor): 580 mg/m^2/d
